Reference: ChEMBL document CHEMBL5360622, “Leucettinibs, a Class of DYRK/CLK Kinase Inhibitors Inspired by the Marine Sponge Natural Product Leucettamine B” (J Med Chem, 2023)

Legend:
[1] = molecular target: Dual specificity protein kinase CLK4 (Homo sapiens, UniProt Q9HAZ1)
[2] = molecular target: Casein kinase I isoform epsilon (Homo sapiens, UniProt P49674)
[3] = molecular target: Cyclin-dependent kinase 5/CDK5 activator 1 (Homo sapiens, UniProt Q00535); assay type: cell-based, Sf9
[4] = molecular target: T1, Dual specificity tyrosine-phosphorylation-regulated kinase 3 (Homo sapiens, UniProt O43781)
T1 sequence (O43781 whole entry): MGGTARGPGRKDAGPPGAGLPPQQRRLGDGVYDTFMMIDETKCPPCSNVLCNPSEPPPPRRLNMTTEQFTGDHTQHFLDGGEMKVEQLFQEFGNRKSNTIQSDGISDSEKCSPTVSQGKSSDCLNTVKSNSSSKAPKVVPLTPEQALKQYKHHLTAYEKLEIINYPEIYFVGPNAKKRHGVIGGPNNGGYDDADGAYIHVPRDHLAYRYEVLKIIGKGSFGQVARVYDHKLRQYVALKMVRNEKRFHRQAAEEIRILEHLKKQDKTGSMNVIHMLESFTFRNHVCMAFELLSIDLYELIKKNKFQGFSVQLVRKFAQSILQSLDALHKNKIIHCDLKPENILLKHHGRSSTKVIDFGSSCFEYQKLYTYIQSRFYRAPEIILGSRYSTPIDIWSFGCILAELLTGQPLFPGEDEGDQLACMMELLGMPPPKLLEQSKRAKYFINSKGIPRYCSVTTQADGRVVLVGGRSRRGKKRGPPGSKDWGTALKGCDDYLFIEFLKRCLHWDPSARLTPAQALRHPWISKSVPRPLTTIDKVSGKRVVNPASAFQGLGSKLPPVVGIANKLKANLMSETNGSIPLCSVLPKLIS

[5] = molecular target: Dual specificity protein kinase CLK2 (Homo sapiens, UniProt P49760)
[6] = molecular target: T2, Dual specificity tyrosine-phosphorylation-regulated kinase 2 (Homo sapiens, UniProt Q92630)
T2 sequence (Q92630 whole entry): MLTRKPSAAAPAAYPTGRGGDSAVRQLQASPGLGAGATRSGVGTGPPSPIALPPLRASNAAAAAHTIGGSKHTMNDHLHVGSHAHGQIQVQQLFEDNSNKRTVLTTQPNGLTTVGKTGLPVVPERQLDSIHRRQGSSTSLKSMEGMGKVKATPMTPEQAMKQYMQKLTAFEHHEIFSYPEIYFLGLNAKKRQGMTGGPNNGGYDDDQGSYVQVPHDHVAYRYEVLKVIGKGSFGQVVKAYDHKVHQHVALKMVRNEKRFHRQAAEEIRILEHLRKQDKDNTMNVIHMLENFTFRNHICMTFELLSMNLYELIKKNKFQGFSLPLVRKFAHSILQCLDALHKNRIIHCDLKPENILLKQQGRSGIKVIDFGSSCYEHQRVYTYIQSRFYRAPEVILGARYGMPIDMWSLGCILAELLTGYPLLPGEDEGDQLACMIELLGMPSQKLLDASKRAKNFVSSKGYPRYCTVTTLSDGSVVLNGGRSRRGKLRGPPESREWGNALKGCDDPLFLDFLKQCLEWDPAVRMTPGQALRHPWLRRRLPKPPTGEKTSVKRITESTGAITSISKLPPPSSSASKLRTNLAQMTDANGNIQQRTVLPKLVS

[7] = molecular target: Glycogen synthase kinase-3 beta (Homo sapiens, UniProt P49841); assay type: cell-based, Sf9
[8] = molecular target: Dual specificity protein kinase CLK3 (Homo sapiens, UniProt P49761); assay type: cell-based, Sf9
[9] = molecular target: T3, Dual specificity tyrosine-phosphorylation-regulated kinase 4 (Homo sapiens, UniProt Q9NR20)
T3 sequence (Q9NR20 whole entry): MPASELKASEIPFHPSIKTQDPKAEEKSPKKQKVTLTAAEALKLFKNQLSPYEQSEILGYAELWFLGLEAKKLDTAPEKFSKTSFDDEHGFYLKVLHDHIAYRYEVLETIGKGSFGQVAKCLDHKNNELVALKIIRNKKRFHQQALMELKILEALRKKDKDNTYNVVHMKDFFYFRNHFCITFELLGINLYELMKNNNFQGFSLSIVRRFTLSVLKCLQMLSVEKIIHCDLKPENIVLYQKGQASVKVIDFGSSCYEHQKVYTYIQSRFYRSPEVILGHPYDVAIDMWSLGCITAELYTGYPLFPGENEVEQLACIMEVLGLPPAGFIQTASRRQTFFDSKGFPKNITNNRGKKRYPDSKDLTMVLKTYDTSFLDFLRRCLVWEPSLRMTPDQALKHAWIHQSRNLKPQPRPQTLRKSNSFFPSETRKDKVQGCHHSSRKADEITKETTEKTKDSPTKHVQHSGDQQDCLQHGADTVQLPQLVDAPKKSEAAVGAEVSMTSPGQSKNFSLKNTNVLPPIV

Sequence of Dual specificity protein kinase CLK3 (P49761 whole entry): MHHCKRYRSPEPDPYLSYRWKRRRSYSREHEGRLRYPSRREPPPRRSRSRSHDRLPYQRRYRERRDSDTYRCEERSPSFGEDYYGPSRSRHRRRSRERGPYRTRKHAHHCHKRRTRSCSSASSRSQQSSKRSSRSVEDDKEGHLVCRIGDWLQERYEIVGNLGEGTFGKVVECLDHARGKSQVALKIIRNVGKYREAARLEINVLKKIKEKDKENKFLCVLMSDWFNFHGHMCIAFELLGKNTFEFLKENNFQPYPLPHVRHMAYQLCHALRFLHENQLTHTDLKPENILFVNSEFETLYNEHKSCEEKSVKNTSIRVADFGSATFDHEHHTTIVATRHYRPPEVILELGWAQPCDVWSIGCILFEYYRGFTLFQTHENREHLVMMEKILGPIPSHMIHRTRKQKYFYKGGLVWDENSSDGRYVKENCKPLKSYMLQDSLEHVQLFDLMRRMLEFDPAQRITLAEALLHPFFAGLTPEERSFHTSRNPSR
Sequence of Cyclin-dependent kinase 5/CDK5 activator 1 (Q00535 whole entry): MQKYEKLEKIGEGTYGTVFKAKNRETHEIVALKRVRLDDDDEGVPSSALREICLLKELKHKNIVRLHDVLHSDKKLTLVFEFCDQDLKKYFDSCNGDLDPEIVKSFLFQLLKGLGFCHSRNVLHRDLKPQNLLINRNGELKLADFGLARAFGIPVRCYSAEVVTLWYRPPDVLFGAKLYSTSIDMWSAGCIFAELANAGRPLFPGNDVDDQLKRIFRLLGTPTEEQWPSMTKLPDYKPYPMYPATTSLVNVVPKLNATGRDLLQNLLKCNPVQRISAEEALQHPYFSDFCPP
Sequence of Cyclin-dependent kinase 5/CDK5 activator 1 (Q15078 whole entry, further chain): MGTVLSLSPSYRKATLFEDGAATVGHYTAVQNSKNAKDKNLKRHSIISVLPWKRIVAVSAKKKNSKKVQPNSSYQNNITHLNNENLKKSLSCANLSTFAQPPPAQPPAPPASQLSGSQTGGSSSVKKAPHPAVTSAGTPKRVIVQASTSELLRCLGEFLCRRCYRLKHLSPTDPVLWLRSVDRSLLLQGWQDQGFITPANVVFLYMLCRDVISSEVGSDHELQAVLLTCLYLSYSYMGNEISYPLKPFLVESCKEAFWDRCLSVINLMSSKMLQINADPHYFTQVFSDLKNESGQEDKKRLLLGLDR
Sequence of Glycogen synthase kinase-3 beta (P49841 whole entry): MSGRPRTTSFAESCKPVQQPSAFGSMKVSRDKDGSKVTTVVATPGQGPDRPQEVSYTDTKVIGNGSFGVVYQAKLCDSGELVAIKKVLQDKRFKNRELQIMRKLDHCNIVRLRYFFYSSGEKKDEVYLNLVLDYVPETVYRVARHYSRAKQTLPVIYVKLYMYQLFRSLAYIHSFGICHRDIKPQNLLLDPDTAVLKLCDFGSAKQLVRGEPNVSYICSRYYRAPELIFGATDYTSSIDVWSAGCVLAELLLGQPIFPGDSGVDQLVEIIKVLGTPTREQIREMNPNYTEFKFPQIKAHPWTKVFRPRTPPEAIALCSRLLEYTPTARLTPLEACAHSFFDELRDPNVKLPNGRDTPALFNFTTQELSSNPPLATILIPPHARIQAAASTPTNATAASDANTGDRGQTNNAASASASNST
Sequence of Dual specificity protein kinase CLK2 (P49760 whole entry): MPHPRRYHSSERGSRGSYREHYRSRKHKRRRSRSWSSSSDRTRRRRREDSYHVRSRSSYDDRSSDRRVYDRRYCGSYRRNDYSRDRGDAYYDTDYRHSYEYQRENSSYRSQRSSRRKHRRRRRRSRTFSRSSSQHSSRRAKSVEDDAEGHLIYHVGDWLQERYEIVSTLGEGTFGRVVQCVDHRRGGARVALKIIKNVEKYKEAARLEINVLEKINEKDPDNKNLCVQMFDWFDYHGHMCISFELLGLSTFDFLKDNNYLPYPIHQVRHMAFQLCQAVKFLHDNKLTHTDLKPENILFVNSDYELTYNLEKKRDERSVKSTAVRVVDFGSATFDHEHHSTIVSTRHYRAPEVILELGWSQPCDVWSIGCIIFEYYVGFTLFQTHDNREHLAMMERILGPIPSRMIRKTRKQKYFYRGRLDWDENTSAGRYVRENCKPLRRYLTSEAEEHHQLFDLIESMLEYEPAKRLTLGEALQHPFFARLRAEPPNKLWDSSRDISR
Sequence of Dual specificity protein kinase CLK4 (Q9HAZ1 whole entry, canonical isoform): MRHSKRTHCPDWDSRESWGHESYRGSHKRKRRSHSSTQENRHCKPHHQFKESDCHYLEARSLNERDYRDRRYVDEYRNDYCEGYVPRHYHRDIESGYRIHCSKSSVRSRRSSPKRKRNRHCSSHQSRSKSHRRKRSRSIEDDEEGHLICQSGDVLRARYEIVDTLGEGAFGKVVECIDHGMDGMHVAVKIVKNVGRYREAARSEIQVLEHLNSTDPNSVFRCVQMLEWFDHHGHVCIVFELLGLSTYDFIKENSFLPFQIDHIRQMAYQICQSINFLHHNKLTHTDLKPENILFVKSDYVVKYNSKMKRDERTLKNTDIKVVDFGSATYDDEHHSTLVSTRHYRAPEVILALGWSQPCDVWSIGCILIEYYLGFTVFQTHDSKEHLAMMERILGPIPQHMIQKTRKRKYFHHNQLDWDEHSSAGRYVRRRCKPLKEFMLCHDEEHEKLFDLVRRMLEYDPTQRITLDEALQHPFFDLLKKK
Sequence of Casein kinase I isoform epsilon (P49674 whole entry, canonical isoform): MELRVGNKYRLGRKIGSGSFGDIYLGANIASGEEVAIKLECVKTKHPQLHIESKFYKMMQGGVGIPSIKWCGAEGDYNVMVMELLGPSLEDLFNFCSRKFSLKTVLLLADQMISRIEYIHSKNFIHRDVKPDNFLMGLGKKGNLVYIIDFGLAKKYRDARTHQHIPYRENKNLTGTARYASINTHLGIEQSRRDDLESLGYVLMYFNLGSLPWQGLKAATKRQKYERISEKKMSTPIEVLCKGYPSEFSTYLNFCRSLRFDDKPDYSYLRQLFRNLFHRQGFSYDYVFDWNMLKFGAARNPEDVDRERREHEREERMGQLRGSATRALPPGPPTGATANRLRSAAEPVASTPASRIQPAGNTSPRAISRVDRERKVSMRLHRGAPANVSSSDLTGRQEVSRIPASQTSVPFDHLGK

SMILES | IC50 [1] [µM] | IC50 [2] [µM] | IC50 [3] [µM] | IC50 [4] [µM] | IC50 [5] [µM] | IC50 [6] [µM] | IC50 [7] [µM] | IC50 [8] [µM] | IC50 [9] [µM]
COCC(Cc1ccccc1)NC1=N/C(=C\c2ccc3ncsc3c2)C(=O)N1 (configuration not stated) | 0.012 | > 10 | > 10 | 2.38 | 0.099 | 0.4 | 4.25 | 0.808 | 0.374
Cc1nc2ccc(/C=C3\N=C(NC4CCCCCC4)NC3=O)cc2s1 | 0.034 | > 10 | > 10 | 3.26 | 5.63 | 2.28 | > 10 | > 10 | > 10
CCCCCCc1ccc(NC2=N/C(=C\c3ccc4ncsc4c3)C(=O)N2)cc1 | 3.13 | > 10 | > 10 | > 10 | 14.2 | > 10 | > 10 | > 10 | > 10
CC(C)(C)NC(=O)OC12CC3CC(CC(NC4=N/C(=C\c5ccc6ncsc6c5)C(=O)N4)(C3)C1)C2 | 0.011 | 5 | > 10 | 0.299 | 0.035 | 0.147 | 1.8 | 0.709 | 0.127
Cn1ncc2cccc(NC3=N/C(=C\c4ccc5ncsc5c4)C(=O)N3)c21 | 0.073 | > 10 | > 10 | 4.05 | 0.698 | 5.63 | 3.68 | 1.55 | 4.82
CC(C)(C)C(=O)OC12CC3CC(CC(NC4=N/C(=C\c5ccc6ncsc6c5)C(=O)N4)(C3)C1)C2 | 0.436 | > 10 | > 10 | > 10 | 1.31 | > 10 | > 10 | > 10 | > 10
COC(=O)[C@H](CC(C)C)NC1=N/C(=C\c2ccc3ncsc3c2)C(=O)N1 | 0.017 |  | > 10 | 1.54 | 0.219 | 0.903 | 4.1 | 1.7 | 0.821
Cc1nc2ccc(/C=C3\N=C(NC45CC6CC(CC(C6)C4)C5)NC3=O)cc2s1 | 0.02 | > 10 | > 10 | 0.324 | 1.34 | 0.666 | > 10 | > 10 | > 10
CC(NC1=N/C(=C\c2ccc3ncsc3c2)C(=O)N1)C12CC3CC(CC(C3)C1)C2 (racemic) | 0.21 | > 10 | > 10 | > 10 | 1.32 | > 10 | > 10 | 5.11 | > 10
O=C1NC(NCc2ccccc2)=N/C1=C\c1ccc2ncsc2c1 | 0.013 | > 10 | 6.11 | 1.64 | 0.086 | 1.21 | 2.15 | 0.28 | 1.94
CN(C)CC(NC1=N/C(=C\c2ccc3ncsc3c2)C(=O)N1)c1ccccc1 (racemic) | 0.104 | > 10 | > 10 | 1.5 | 0.59 | > 10 | 6.77 | 4.12 | 8.73
COC(=O)[C@@H](CC(C)C)NC1=N/C(=C\c2ccc3ncsc3c2)C(=O)N1 | 0.034 |  | > 10 | 5.07 | 0.378 | 2.37 | 1.34 | 0.852 | 2.26

Second part, the compound after the results:

IC50 [1] [µM] | IC50 [2] [µM] | IC50 [3] [µM] | IC50 [4] [µM] | IC50 [5] [µM] | IC50 [6] [µM] | IC50 [7] [µM] | IC50 [8] [µM] | IC50 [9] [µM] | SMILES
0.027 | > 10 | > 10 | 2.98 | 0.416 | 3.3 | > 10 | 2.81 | 6.08 | CN1CCCC(NC2=N/C(=C\c3ccc4ncsc4c3)C(=O)N2)C1=O (racemic)
0.021 | > 10 | > 10 | 0.443 | 0.869 | 0.257 | 1.83 | 2.24 | 0.705 | CC(=O)N1CCc2ccc(NC3=N/C(=C\c4ccc5ncsc5c4)C(=O)N3)cc21
0.011 | > 10 | > 10 | 0.223 | 0.017 | 0.176 | > 10 | 0.738 | 0.221 | CC1(C)C2CCC1(C)[C@H](NC1=N/C(=C\c3ccc4ncsc4c3)C(=O)N1)C2 (some centres not stated)
1.5 | > 10 | > 10 | 1.59 | 3.66 | > 10 | > 10 | > 10 | > 10 | CN1CCC(CNC2=N/C(=C\c3ccc4ncsc4c3)C(=O)N2)CC1
0.028 | > 10 | > 10 | 2.02 | 0.923 | 0.854 | > 10 | 4.48 | 3.47 | CC1(C)CNC(=O)C1NC1=N/C(=C\c2ccc3ncsc3c2)C(=O)N1 (racemic)
0.012 |  | > 10 | 1.13 | 0.094 | 0.811 | > 10 | 0.698 | 1.29 | O=C1NC(NCC2CCOCC2)=N/C1=C\c1ccc2ncsc2c1
0.147 | > 10 | > 10 | 2.45 | 0.211 | 9.72 | > 10 | 2.74 | 2.56 | CC(C)[C@@H]1CC[C@@H](C)C[C@H]1NC1=N/C(=C\c2ccc3ncsc3c2)C(=O)N1
0.18 | > 10 | > 10 | 0.887 | 0.771 | 4.76 | > 10 | 1.23 | 7.04 | CN1CCCC(NC2=N/C(=C\c3ccc4ncsc4c3)C(=O)N2)C1 (racemic)
0.014 | > 10 | > 10 | 1.43 | 0.614 | 0.574 | 5.92 | 0.491 | 2.16 | O=C1NC(NC2COC2)=N/C1=C\c1ccc2ncsc2c1
0.107 | > 10 | > 10 | 0.403 | 0.851 | 4.47 | > 10 | 7.46 |  | CN1CCC2(CC1)CC(NC1=N/C(=C\c3ccc4ncsc4c3)C(=O)N1)C2
0.024 |  | > 10 | 1.8 | 0.127 | 1.89 | 2.81 | 0.722 | 1.63 | Cc1ccc(CNC2=N/C(=C\c3ccc4ncsc4c3)C(=O)N2)o1
